Laboratory results published in PubChem BioAssay AID179 (DTP/NCI, 2004).
“And” between values parts separate entries of the source, which are not always exact repeats. Equal entries are not always repeated. The source made the active and inactive calls.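 How the source made its calls: active means compounds giving half or more protection of infected cells from virus-caused growth loss, again on retest; inactive means the rest.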

Test system: CEM cells HIV-1 protection, formazan growth assay
Experiment: NCI AIDS Antiviral Assay
Conditions: for IC50: measured here: growth of uninfected CEM cells
In short: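 CEM (human) cells, HIV-1 infected vs uninfected, 5-point dosing, formazan growth read-out. Retest threshold 50% protection.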

Structure (SMILES)	outcome	EC50	IC50
O=c1/c(=C/c2cccc([N+](=O)[O-])c2)sc2nc3ccccc3n12	inactive		
COc1nc(N)c(NC2OCC(O)C(O)C2O)c(=O)n1C (configuration not stated)		195 µM and 182 µM and > 200 µM	603 µM and 224 µM and > 200 µM
CC(=O)C1(O)C(=[N+]=[N-])C(=O)Nc2ccccc21 (configuration not stated)		> 200 µM	66.1 µM
c1ccc2c(c1)ncn2CCn1ccnc1		> 200 µM	> 200 µM
N#CCN1CCOCCOCCN(CC#N)CCOCCOCC1	inactive		
COC(=O)c1ccc(CSc2ccccc2C(=O)O)cc1		> 603 µM	427 µM
CCOC1NC(=O)c2ccccc21 (configuration not stated)	inactive		> 200 µM
CC(=O)C(C=NCCN=CC(C(C)=O)C(C)=O)C(C)=O.[Ni]		> 200 µM	> 200 µM
COc1cc2c3cc1Oc1c(OC)c(OC)cc4c1C(Cc1ccc(cc1)Oc1cc(ccc1O)CC3N(C)CC2)N(C)CC4 (configuration not stated)	inactive	> 22.4 µM	> 22.4 µM
O=C1c2ccccc2C(=O)c2c(O)c(NCCNCCO)cc(O)c21	inactive		
C[Si](C)(C)/C=C\CCNCc1ccccc1		> 776 µM	> 776 µM
O=C(N/C(=C\c1ccc([N+](=O)[O-])cc1)c1nc2ccccc2[nH]1)c1ccccc1		> 35.5 µM	> 35.5 µM
CCCCC1=C(C(=O)N2CCOCC2)C2(OCCO2)C1Cl (configuration not stated)		> 58.9 µM	10 µM
CCC(C)OC(=O)/C(Br)=C1/OC(=O)c2ccccc2-c2ccccc21 (configuration not stated)		> 200 µM	47.9 µM
CC1=C/C(=C(\c2cc(C)c(O)c(Br)c2)c2ccccc2S(=O)(=O)O)C=C(Br)C1=O	inactive		
CSc1nc(NC2OC(COC(C)=O)C(OC(C)=O)C(OC(C)=O)C2OC(C)=O)c(N=CC=Nc2c(NC3OC(COC(C)=O)C(OC(C)=O)C(OC(C)=O)C3OC(C)=O)nc(SC)[nH]c2=O)c(=O)[nH]1 (configuration not stated)	inactive		
CCCN(C)C(=O)N(CC)S(=O)(=O)c1ccc(Cl)cc1	inactive		
COC(=O)CN=C1NC(=S)N(Cc2ccc(OC)cc2)C12CCCC2		> 200 µM	> 200 µM
CC(C)CCCC(C)[C@H]1CC[C@H]2[C@@H]3CC[C@H]4C[C@@H](CCC=C(c5cc(Cl)c(O)c(C(=O)O)c5)c5cc(Cl)c(O)c(C(=O)O)c5)CC[C@]4(C)[C@H]3CC[C@]12C (some centres not stated)		60.3 µM	129 µM
O=c1[nH]c(=O)n(C2CC(O)C(CO)O2)cc1/C=C/Br (configuration not stated)		> 759 µM	741 µM
O=c1oc2ccccc2c(O)c1Cc1ccc(Cc2c(O)c3ccccc3oc2=O)cc1		> 200 µM	182 µM
Cc1ccc(/C=C2\Cc3c(C)cc(C)cc3C2=O)c(C(=O)O)c1		> 200 µM	85.1 µM

Structure (SMILES)	outcome	EC50	IC50
COc1ccc(-c2c(C)c(C(=O)O)nc(-c3ccc4c(O)c(OC)c5c(c4n3)=NC(C)(C)N=5)c2N)c(O)c1OC		> 457 µM	2.4 µM
Cc1cccc(C)c1NC(=O)C(=O)CC(=O)CO		> 724 µM	> 724 µM
CC(C)C1CC=CCC12C(=O)NC(=O)NC2=O (configuration not stated)		> 1050 µM	955 µM
CC(=O)OC/C=C/Cn1cnc(C(N)=O)c1N		> 200 µM	> 200 µM
Cc1noc(NS(=O)(=O)c2ccc(Nc3nc(CC(=O)Nc4ccccc4)cs3)cc2)c1C		> 200 µM	28.2 µM
COc1ccc(SS(=O)(=O)c2ccc(OC)cc2)cc1		> 56.2 µM	5.25 µM
N#Cc1c(C(N)=O)ncn1Cc1ccccc1	inactive		
O=C(CC1(O)C(=O)Nc2c(Cl)ccc(Cl)c21)c1ccc2ccccc2c1 (configuration not stated)		> 245 µM	14.5 µM
CCCCN(CCCC)C(=O)C(=O)CC(=O)/C=C/c1ccccc1		> 288 µM	> 288 µM
COc1cc(NC=O)c2c(c1)SC(c1ccccc1)C(=O)N2 (configuration not stated)		> 200 µM	56.2 µM
N#Cc1ccccc1C(Cl)(Cl)c1cnccn1		> 490 µM	64.6 µM
COc1ccc2cc3[n+](cc2c1O)CCc1cc2c(cc1-3)OCO2		> 347 µM	6.03 µM
O=C(c1ccc(F)cc1)c1cccc(C(=O)c2ccc(F)cc2)n1		> 30.9 µM	> 30.9 µM
CC(C)C(O)(C(=O)OCN1C(=O)C2C3C=CC(C2C1=O)C1C2C(=O)N(COC(=O)C(O)(C(C)C)C(C)O)C(=O)C2C31)C(C)O (configuration not stated)		> 200 µM	> 200 µM
CC1(C)CC(N2CCN(C3CC(C)(C)NC(C)(C)C3)CC2)CC(C)(C)N1		> 339 µM	> 339 µM
O=S(O)c1cc(Cl)c(O)c(Cl)c1	inactive		
COc1cc(C[C@H]2C(=O)OC[C@@H]2Cc2ccc(OC)c(OC)c2)cc(OC)c1		> 200 µM	91.2 µM
O=c1c(-c2ccccc2)c[nH]c2cc([N+](=O)[O-])c(/C(Cl)=C/c3ccccc3)cc12	inactive		
O=[N+]([O-])Cc1cnc2nncn2n1	inactive		
c1ccc2c(c1)cnc1c3ccccc3nn21		> 17.4 µM	> 17.4 µM
N#Cc1nc(C2OC(COC(=O)c3ccccc3)C(OC(=O)c3ccccc3)C2OC(=O)c2ccccc2)oc1N (configuration not stated)		> 18.2 µM	9.77 µM
Cc1ccc(-c2nc3ccccc3c(=O)n2NCC2(O)OCC(O)C(O)C2O)cc1 (configuration not stated)	inactive		

Structure (SMILES)	outcome	EC50	IC50
O=C(CC(C(=O)c1cccs1)c1ccccc1)c1ccccc1O (configuration not stated)		> 200 µM	115 µM
O=c1[nH]c(=O)n(C2C=CC(CO)O2)cc1F (configuration not stated)		> 200 µM	> 200 µM
O=C(O)C1NCCc2c1[nH]c1ccccc21 (configuration not stated)	inactive		
O=C(O)CSc1n[nH]c(-c2ccccc2)n1		> 30.9 µM	7.59 µM
CSc1ncnc2c1cnn2CCCCO		> 200 µM	> 200 µM
COC(=O)c1cc(C(c2cc(C(=O)OC)c(O)c(Br)c2C)C(Cl)Cl)c(C)c(Br)c1O		> 200 µM	66.1 µM
O=C1NC(=O)C(=Cc2ccccc2[N+](=O)[O-])C(=O)N1	inactive		
[CH3][Sn]([CH3])([CH3])[c]1cccc2ccccc12	inactive		
S=c1[nH]c2cccc3c2n1C[C@@H]1CCCN1C3		> 32.4 µM	17 µM
C=C1C2CC[C@@]3(CC[C@@H]4[C@@]5(C)CCC[C@@]4(C=[N+](CCOC(C)=O)C5)[C@@H]3C2)[C@@H]1OC(C)=O	inactive		
CC(C)C(NC(=O)OC(C)(C)C)C(=O)N1CC[C@@H](O)[C@H]1C(O)CC(=O)OC(C)(C)C (some centres not stated)		> 200 µM	> 200 µM
Cc1noc(NS(=O)(=O)c2ccc(N=c3c4ccccc4n(C)c4ccccc34)cc2)c1C	inactive		
COC(=O)/C=C/c1ccc2c(c1)CCC2		> 200 µM	6.92 µM
COC(=O)[C@@H]1C[C@]2(Br)c3ccccc3N(S(=O)(=O)c3ccccc3)[C@@H]2N1C(=O)OC		> 200 µM	138 µM
COc1cc(C2c3cc(O)c(OC)cc3C[C@@H]3C(=O)OCC23)ccc1O (some centres not stated)		> 263 µM	> 263 µM
Cc1cn2c(n1)Nc1sc3c(c1C2)CCCC3		> 200 µM	30.2 µM
CCOC(=O)C(=Cc1cccc(Cl)c1)C(=O)OCC		> 91.2 µM	6.17 µM
N#CC(c1ccccc1)(c1ccccc1)[C@@H](c1ccccc1)[C@H](Cc1ccccc1)NS(=O)(=O)c1ccccc1		> 200 µM	> 200 µM
CCN(CC)CC1CCCCN1CC(=O)N1c2ccccc2NC(=O)CC1C (configuration not stated)		158 µM	> 200 µM
CC(=O)OC1CC2C(C)(CCC3C2(C)CCC2(C)C4CC(C)(C)CCC4(C)CCC32C)C1C (configuration not stated)		> 200 µM	145 µM
CC1CN(c2cc3c(cc2F)c(=O)c(C(=O)O)cn3-c2ccc(N3CCN(C)CC3)cn2)CC(C)N1 (configuration not stated)		> 145 µM	123 µM
CC(C)c1cc(C(C)C)c(B(c2ccccc2)c2ccccc2)c(C(C)C)c1Br		> 200 µM	> 200 µM

Structure (SMILES)	outcome	EC50	IC50
N#C/C(C(=O)NCc1ccccc1)=C(/N)N1CCCC1		> 200 µM	> 200 µM
Cc1ccc(NC(=O)c2cnccn2)c(=O)o1		> 200 µM	> 200 µM
O=C(OCCc1ccccc1)c1ccc2c(O)c(O)ccc2c1		> 8.32 µM	6.03 µM
NCCSS(=O)(=O)CCN		> 363 µM	
N#CC(/C(=N\NC(=O)c1ccncc1)C(=O)Nc1ccc([N+](=O)[O-])cc1[N+](=O)[O-])c1nc(-c2ccc(Br)cc2)cs1 (configuration not stated)		> 389 µM	> 389 µM
COc1ccc(C(C)NNC(=O)c2ccncc2)cc1F (configuration not stated)		> 200 µM	112 µM
COc1cc(/C=C/c2nc(N)nnc2C)cc(OC)c1OC		> 200 µM	2.82 µM
Cc1ccc(S(=O)(=O)c2ccccc2[N+](=O)[O-])cc1		14.5 µM	81.3 µM
O=C(CCCn1cnc([N+](=O)[O-])n1)NCCn1ccnc1[N+](=O)[O-]		> 200 µM	> 200 µM
N#CC(NCCc1ccccc1)c1ccccc1 (configuration not stated)	inactive		
CCOP(=O)(OCC)/C(C#N)=C/c1cccs1		77.6 µM	724 µM
Fc1cccc(F)c1C1SCc2nc3cc(Cl)c(Cl)cc3n21 (configuration not stated)		120 µM	195 µM
Cc1cc(C)c(C(=O)/C(=C/c2ccccc2)c2ccccc2)c(C)c1		> 15.8 µM	> 15.8 µM
CCOC1(C)Nc2cc(OC)cc3c2N1C(=O)CCS3 (configuration not stated)		> 200 µM	95.5 µM
CCc1cc2c(cc1C(=O)CCC(=O)O)CC1(C2)Cc2cc(CC)c(C(=O)CCC(=O)O)cc2C1		> 200 µM	107 µM
O=C(NCCSSCCNC(=O)/C(Cc1ccc(O)c(Br)c1)=N/O)/C(Cc1ccc(O)c(Br)c1)=N/O	inactive		
Cc1cc(Cc2c(F)c(F)c(C(c3cc(C)no3)c3c(F)c(F)c(F)c(F)c3F)c(F)c2F)on1 (configuration not stated)		> 200 µM	3.39 µM
CCOC(C)O[C@H]1C(=O)OCC1(C)C (some centres not stated)		77.6 µM	> 200 µM
CC1(C)CCC[C@@]2(C)C1CC[C@@]1(CO1)[C@@H]2/C=C\C(C=O)CC=O (some centres not stated)	inactive		
O=C(O)c1cc(C(=CCCBr)c2cc(Cl)c(O)c(C(=O)O)c2)cc(Cl)c1O		117 µM	219 µM
O=C(CCc1n[nH]c(=S)o1)Nc1ccc(Cl)cc1Cl		> 31.6 µM	> 31.6 µM
CC(=O)C1(C)CCC2C3C=C(C)C4=CC(=O)CCC4(C)C3CCC21C (configuration not stated)		> 117 µM	16.2 µM
